Experimental data reported in article PMC12459314, “Subcutaneous administration of a novel TRPM8 antagonist reverses cold hypersensitivity while attenuating the drop in core body temperature” (British journal of pharmacology, 2024).
Where “and” joins values, the source holds several entries; their conditions need not be identical. Equal entries are not always repeated.

Key:
[1] = biological target: T1, dopamine transporter (DAT) (Homo sapiens, UniProt Q01959); experiment: SAFETYscan E/IC50 ELECT, dopamine transporter antagonist assay; format: cell-based; settings: single experiment
T1 construct: purchased Eurofins DiscoverX (SAFETYscan E/IC50 ELECT service)
T1 sequence (Q01959 whole entry): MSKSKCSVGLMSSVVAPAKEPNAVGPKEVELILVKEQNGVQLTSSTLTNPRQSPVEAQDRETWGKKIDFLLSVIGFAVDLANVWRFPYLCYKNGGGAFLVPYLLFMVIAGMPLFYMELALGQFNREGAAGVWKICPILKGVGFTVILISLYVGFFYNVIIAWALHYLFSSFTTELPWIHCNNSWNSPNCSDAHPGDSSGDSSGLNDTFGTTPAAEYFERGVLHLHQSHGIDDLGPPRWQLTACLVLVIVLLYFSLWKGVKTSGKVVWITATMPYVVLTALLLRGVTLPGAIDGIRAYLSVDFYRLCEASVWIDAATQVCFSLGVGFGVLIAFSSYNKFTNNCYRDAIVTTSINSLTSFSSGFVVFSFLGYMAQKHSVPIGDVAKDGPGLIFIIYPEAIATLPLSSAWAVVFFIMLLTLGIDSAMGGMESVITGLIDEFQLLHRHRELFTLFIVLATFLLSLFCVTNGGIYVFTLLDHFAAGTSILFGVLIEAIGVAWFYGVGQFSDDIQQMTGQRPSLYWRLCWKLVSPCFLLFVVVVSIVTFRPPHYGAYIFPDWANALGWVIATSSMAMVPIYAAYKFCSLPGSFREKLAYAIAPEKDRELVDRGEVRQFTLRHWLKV
Method: (§1) Assessment of the safety profile of VBJ103 across 78 assays using recombinant human targets was performed with the SAFETYscan E/IC50 ELECT service by Eurofins DiscoverX (San Diego, CA, USA). […] The assays were performed utilizing PathHunter enzyme fragment complementation (EFC) technology, FLIPR®-based cellular screening assays, KINOMEscan kinase binding assays and a variety of enzymatic assays. Further potential functional activity at opioid receptors was performed in the gpcrSCAN service by Eurofins DiscoverX. Hit Hunter® cAMP assays were carried out using Enzyme Fragment Complementation (EFC) with β-galactosidase (β-Gal) as the functional reporter.

[2] = biological target: T2, μ opioid receptor (OPRM1) (Homo sapiens, UniProt P35372); experiment: Eurofins DiscoverX opioid receptor assays (SAFETYscan; HitHunter cAMP), OPRM1; format: cell-based
T2 construct: purchased Eurofins DiscoverX (SAFETYscan; gpcrSCAN; HitHunter cAMP XS+)
T2 sequence (P35372 whole entry): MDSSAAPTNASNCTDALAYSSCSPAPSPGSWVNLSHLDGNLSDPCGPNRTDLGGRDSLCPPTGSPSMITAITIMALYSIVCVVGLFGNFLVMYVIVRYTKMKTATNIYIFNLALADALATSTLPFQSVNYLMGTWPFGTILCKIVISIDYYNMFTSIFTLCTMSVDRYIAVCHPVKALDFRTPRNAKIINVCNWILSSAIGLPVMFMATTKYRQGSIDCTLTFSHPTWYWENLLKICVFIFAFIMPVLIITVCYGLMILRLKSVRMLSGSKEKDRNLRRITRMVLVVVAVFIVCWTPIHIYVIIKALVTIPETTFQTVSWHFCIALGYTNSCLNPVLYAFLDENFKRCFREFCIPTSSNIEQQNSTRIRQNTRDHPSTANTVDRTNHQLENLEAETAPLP
Method: as §1
(§2) Assessment of potential positive allosteric modulator (PAM) activity at μ, δ and κ opioid receptors was performed with the DiscoverX HitHunter cAMP XS+ assay by Eurofins DiscoverX (San Diego, CA, USA).

[3] = biological target: T3, κ opioid receptor (OPRK1) (Homo sapiens, UniProt P41145); experiment: Eurofins DiscoverX opioid receptor assays (SAFETYscan; HitHunter cAMP), OPRK1; format: cell-based
T3 construct: purchased Eurofins DiscoverX (SAFETYscan; gpcrSCAN; HitHunter cAMP XS+)
T3 sequence (P41145 whole entry): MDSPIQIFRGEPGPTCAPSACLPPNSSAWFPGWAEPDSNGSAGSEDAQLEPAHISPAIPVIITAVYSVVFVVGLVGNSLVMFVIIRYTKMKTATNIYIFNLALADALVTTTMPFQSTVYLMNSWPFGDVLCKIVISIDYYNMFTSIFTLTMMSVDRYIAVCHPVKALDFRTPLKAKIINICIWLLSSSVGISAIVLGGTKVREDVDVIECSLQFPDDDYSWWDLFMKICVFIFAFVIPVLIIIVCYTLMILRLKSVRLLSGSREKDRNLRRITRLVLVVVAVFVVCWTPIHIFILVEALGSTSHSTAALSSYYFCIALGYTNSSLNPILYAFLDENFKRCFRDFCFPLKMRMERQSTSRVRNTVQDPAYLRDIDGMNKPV
Method: as §1, §2

[4] = Partition coefficient (logD), shake flask method; format: physicochemical; settings: n-octanol / pH 7.4 phosphate buffer, pH 7.4
Method: The partition coefficient (logD) at pH 7.4 of VBJ103 was determined using the shake flask method by Absorption Systems (Exton, PA, USA). The buffer was prepared by combining 50 ml of 0.2-M solution of KH2PO4 with 150 ml of dH2O and then adjusting to pH 7.4 with 10-N NaOH. In a single incubation, 15 μl of a 10-mM DMSO solution of each test article was added to test tubes which contained 0.75 ml of n-octanol and 0.75 ml of pH 7.4 phosphate buffer. Testosterone was also introduced to each tube as an internal control, also at a dosing concentration of 100 μM. These samples were gently mixed on a benchtop rotator for 1 h at room temperature. The tubes were then removed from the rotator, and the aqueous and organic phases were allowed to separate for 1 h. An aliquot of the organic layer was taken and diluted 200-fold into a mixture of 1:1 buffer: acetonitrile (ACN). An aliquot of the aqueous layer was taken and diluted 2-fold, 10-fold and 200-fold into a mixture of 1:1 buffer: ACN. All samples were assayed by LC–MS/MS on a Thermo BDS Hypersil C18 column (30 × 2.1 mm, 3 μm) using electrospray ionization, as previously reported ([Journigan et al., 2020]).

[5] = system: oxaliplatin-treated mice; experiment: Oxaliplatin-induced cold hyperalgesia, cold-plantar test; format: in vivo, mouse; settings: for reversal of cold hypersensitivity (withdrawal latency) / increase in latency (AUC) compared to baseline: oxaliplatin group; for influence on oxaliplatin-induced cold hypersensitivity: 30 mg·kg−1 alone
Method: Male and female C57 BL/6J mice from Taconic Labs were randomized by sex and cage to oxaliplatin or vehicle groups. Mice were weighed and injected intraperitoneally (i.p.) with either oxaliplatin (3 mg·kg^−1), or vehicle (5% dextrose) once per day every day for five consecutive days, followed by five days off, and then by a second round of once per day for five more days. Therefore, mice received a total of 10 injections for a total of 30 mg·kg^−1. The average weight of the females was 18 g while of the males was 20 g. Consequently, the females received an average of 540 and the males 600 μg in total. Behavioural testing was started after the second round of oxaliplatin/vehicle administration. The cold-plantar test was used to assess changes in cold sensitivity. A 3 ml syringe barrel filled with powdered dry ice was used as the stimulus. The dry ice is placed on the glass (borosilicate glass; thickness, 1/8 in. (3.17 mm); temperature, 75°F (24°C), measured with a calibrated IR temperature probe) beneath the hindpaw and the latency to withdraw was determined ([Yilmaz et al., 2017]). The baseline withdrawal latency was determined from the mean of three stimulus applications (at an inter-stimulus interval of ~5 min), while that at each time interval after the administration of a test agent was again the mean of three stimulus applications bracketing the time point in question (i.e., 5 min before, at the time point, and 5 min after). Mice in the two groups defined by oxaliplatin treatment were subsequently randomized to the order of treatment (with the TRPM8 antagonist VBJ103, or vehicle control). VBJ103 and vehicle solutions were administered subcutaneously (s.c.) at doses of 3, 10 and 30 mg·kg^−1. Mice were tested every other day over 7 days so that each mouse received all four injections (vehicle and three doses of VBJ103). In a second cohort of male (n = 8) and female (n = 8) mice, all mice were treated with oxaliplatin as described above, and then randomized to the order of treatment with vehicle, VBJ103 (30 mg·kg^−1) alone, the TRPA1 antagonist, HC-030031 (200 mg·kg^−1) alone, or the combination of VBJ103 (30 mg·kg^−1) and HC-030031 (200 mg·kg^−1). A third cohort of male (n = 7) and female (n = 8) mice was also treated with oxaliplatin as described above. […] All test agents in both follow-up cohorts were again administered in a volume of 5 ml·kg^−1. Mice in both follow-up cohorts were again tested every other day over a period of 6 days. Finally, a fourth cohort of male (n = 4) and female (n = 4) mice was used to confirm that 200 mg·kg^−1 HC-030031 was sufficient to block TRPA1. For this experiment, mice were randomized to the order of treatment with vehicle or HC-030031 ([…]).

[6] = system: human TRPM8; design: method as in Journigan et al., 2020; settings: ref Journigan et al., 2020, cited from earlier work
[7] = system: TRPM8; design: method as in Journigan et al., 2020; settings: 30 mg·kg−1, s.c.; ref Journigan et al., 2020; cited from earlier work
[8] = ref Journigan et al, 2020; cited from earlier work

logD at 1 h [4]: 3.21
SMILES: O=C(NC1CCC2(CCCC2)CC1)c1ccc(-c2ccccc2)cc1 [VBJ103, N-(Spiro[4.5]decan-8-yl)-[1,1′-biphenyl]-4-carboxamide]
IC50 ([1]; 10 concentrations, 0.005 to 100 μM): 125 nM and ~125 nM | DAT maximal inhibition ([1]; in relation to the control GBR 12909): ~ 60% | Emax ([2]; OPRM1, Positive Allosteric Modulator format, read-out: Max Response, cAMP): 14.5% | EC50 ([2]; read-out: RC50 (EC50), cAMP): > 100000 nM | activity at μ opioid receptor ([2]; safety panel): no activity | Emax ([3]; Positive Allosteric Modulator format, read-out: Max Response, cAMP): 19.7% | EC50 ([3]; read-out: RC50 (EC50), cAMP): > 100000 nM | activity at κ opioid receptor ([3]; safety panel): no activity | reversal of cold hypersensitivity (withdrawal latency) ([5]; 3 mg·kg−1 s.c., at 2 h): significant reversals in hypersensitivity | reversal of cold hypersensitivity (withdrawal latency) ([5]; 10 mg·kg−1 s.c., at 1 and 2 h): significant reversals in hypersensitivity | increase in latency (AUC) compared to baseline ([5]; 10 mg·kg−1 s.c.): significant | influence on oxaliplatin-induced cold hypersensitivity ([5]; second cohort, vehicle 0.5% Methocel): significantly attenuated oxaliplatin-induced cold hypersensitivity at all time points tested | influence on oxaliplatin-induced cold hypersensitivity ([5]; third cohort, vehicle 1:1 DMSO:water): significantly reversed | reversal of cold hypersensitivity (withdrawal latency) ([5]; 30 mg·kg−1 s.c., at 0.5, 1 and 2 h): significant reversals in hypersensitivity | increase in latency (AUC) compared to baseline ([5]; 30 mg·kg−1 s.c.): significant | influence on withdrawal latency to noxious cold stimuli ([5]; VBJ103 30 mg·kg−1 in combination with GBR12909 20 mg·kg−1, third cohort): no detectable influence of GBR12909 on the withdrawal latency | influence on withdrawal latency to noxious cold stimuli ([5]; VBJ103 30 mg·kg−1 in combination with HC-030031 200 mg·kg−1, second cohort): not detectably different from the influence of VBJ103 alone | baseline responses to noxious cold compared to vehicle ([5]; mice not treated with oxaliplatin, 3 to 30 mg·kg−1 s.c.): not altered | IC50 ([6]; against menthol-stimulated currents): 64 ± 2 nM | selectivity for human TRPM8 versus TRPA1 and TRPV1 ([6]; heterologously expressed channels): ~ 10 fold | icilin-induced wet dog shaking (WDS) behaviour [7]: suppresses | Mouse Liver microsomes, T1/2 [8]: 30 min
